# Measured values taken from PubChem BioAssay (NCI).
#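 Cells were grown in 96-well plates and exposed to each compound for 48 hours at five concentrations; endpoints were interpolated linearly between bracketing concentrations, or set to the highest concentration if not reached. The concentration for full growth arrest is given as TGI.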
# What was measured:
# Test in all cases: NCI anticancer screen, dose series, 48 h
# [1] = tested on: 786-0 renal
# [2] = tested on: A498 renal
# [3] = tested on: A549 NSCLC
# [4] = tested on: ACHN renal
# [5] = tested on: BT-549 breast
# [6] = tested on: CAKI-1 renal
# [7] = tested on: CCRF-CEM leukemia
# [8] = tested on: COLO 205 colon
# [9] = tested on: DU-145 prostate
# [10] = tested on: EKVX NSCLC
# [11] = tested on: HCC-2998 colon
# [12] = tested on: HCT-116 colon
# [13] = tested on: HCT-15 colon
# [14] = tested on: HL-60(TB) leukemia
# [15] = tested on: HOP-62 NSCLC
# [16] = tested on: HOP-92 NSCLC
# [17] = tested on: HS 578T breast
# [18] = tested on: HT29 colon
# [19] = tested on: IGROV1 ovarian
# [20] = tested on: K-562 leukemia
# [21] = tested on: KM12 colon
# [22] = tested on: LOX IMVI melanoma
# [23] = tested on: M14 melanoma
# [24] = tested on: MALME-3M melanoma
# [25] = tested on: MCF7 breast
# [26] = tested on: MDA-MB-231 breast
# [27] = tested on: MDA-MB-435
# [28] = tested on: MDA-N
# [29] = tested on: MOLT-4 leukemia
# [30] = tested on: NCI-H226 lung
# [31] = tested on: NCI-H23 lung
# [32] = tested on: NCI-H460 lung
# [33] = tested on: NCI-H522 lung
# [34] = tested on: NCI/ADR-RES ovarian
# [35] = tested on: OVCAR-3 ovarian
# [36] = tested on: OVCAR-4 ovarian
# [37] = tested on: OVCAR-5 ovarian
# [38] = tested on: OVCAR-8 ovarian
# [39] = tested on: PC-3 prostate
# [40] = tested on: RPMI-8226 leukemia
# [41] = tested on: RXF 393 renal
# [42] = tested on: SF-268 CNS
# [43] = tested on: SF-295 CNS
# [44] = tested on: SK-MEL-2 melanoma
# [45] = tested on: SK-MEL-28 melanoma
# [46] = tested on: SK-MEL-5 melanoma
# [47] = tested on: SK-OV-3 ovarian
# [48] = tested on: SN12C renal
# [49] = tested on: SNB-19 CNS
# [50] = tested on: SNB-75 CNS
# [51] = tested on: SR leukemia
# [52] = tested on: SW-620 colon
# [53] = tested on: T-47D breast
# [54] = tested on: TK-10 renal
# [55] = tested on: U251 CNS
# [56] = tested on: UACC-257 melanoma
# [57] = tested on: UACC-62 melanoma
# [58] = tested on: UO-31 renal
# [59] = tested on: SF-539 CNS
compound,measurement,setting,value
CC/C=C/C[C@H](O[Si](C)(C)C(C)(C)C)[C@H]1C[C@H]2O[C@H]([C@@H](O)C#C[Si](C)(C)C)C[C@H]2O1,TGI,[1],28 µM
same,TGI,[2],32.8 µM
same,TGI,[3],21.8 µM
same,TGI,[4],29 µM
same,TGI,[5],33.4 µM
same,TGI,[6],24.2 µM
same,TGI,[7],> 100 µM
same,TGI,[8],28.2 µM
same,TGI,[9],28.3 µM
same,TGI,[10],25.9 µM
same,TGI,[11],35.1 µM
same,TGI,[12],24.5 µM
same,TGI,[13],26.6 µM
same,TGI,[14],> 100 µM
same,TGI,[15],30.4 µM
same,TGI,[16],22.4 µM
same,TGI,[17],32.4 µM
same,TGI,[18],24.4 µM
same,TGI,[19],27.5 µM
same,TGI,[20],> 44.3 µM
same,TGI,[21],39.2 µM
same,TGI,[22],22.1 µM
same,TGI,[23],24.7 µM
same,TGI,[24],24.8 µM
same,TGI,[25],20.9 µM
same,TGI,[26],30.2 µM
same,TGI,[27],25.3 µM
same,TGI,[28],24.8 µM
same,TGI,[29],> 48.6 µM
same,TGI,[30],20.6 µM
same,TGI,[31],24.7 µM
same,TGI,[32],36 µM
same,TGI,[33],11.9 µM
same,TGI,[34],26.3 µM
same,TGI,[35],30.2 µM
same,TGI,[36],23.1 µM
same,TGI,[37],27.3 µM
same,TGI,[38],27.9 µM
same,TGI,[39],26.2 µM
same,TGI,[40],37.6 µM
same,TGI,[41],20.4 µM
same,TGI,[42],27.4 µM
same,TGI,[43],27.5 µM
same,TGI,[44],31.3 µM
same,TGI,[45],29.7 µM
same,TGI,[46],20 µM
same,TGI,[47],28.9 µM
same,TGI,[48],17.2 µM
same,TGI,[49],26.9 µM
same,TGI,[50],31 µM
same,TGI,[51],7.66 µM
same,TGI,[52],37.7 µM
same,TGI,[53],23.2 µM
same,TGI,[54],30 µM
same,TGI,[55],30.2 µM
same,TGI,[56],23.2 µM
same,TGI,[57],34.1 µM
same,TGI,[58],27.6 µM
Cc1ccc(O)c(C(c2ccc(C(c3cc(C)ccc3O)c3cc(C)ccc3O)cc2)c2cc(C)ccc2O)c1,TGI,[1],3.11 µM
same,TGI,[2],2.91 µM
same,TGI,[3],3.23 µM
same,TGI,[4],3.17 µM
same,TGI,[5],3.49 µM
same,TGI,[6],2.92 µM
same,TGI,[7],5.63 µM
same,TGI,[8],2.75 µM
same,TGI,[9],3.21 µM
same,TGI,[10],3.57 µM
same,TGI,[11],3.31 µM
same,TGI,[12],3.04 µM
same,TGI,[13],3.2 µM
same,TGI,[14],5.47 µM
same,TGI,[15],4.36 µM
same,TGI,[16],3.81 µM
same,TGI,[17],4.7 µM
same,TGI,[18],3.57 µM
same,TGI,[19],3.16 µM
same,TGI,[20],3.56 µM
same,TGI,[21],3.09 µM
same,TGI,[22],3.38 µM
same,TGI,[23],3.36 µM
same,TGI,[24],3.45 µM
same,TGI,[25],4.36 µM
same,TGI,[26],2.67 µM
same,TGI,[27],3.29 µM
same,TGI,[28],2.87 µM
same,TGI,[29],> 100 µM
same,TGI,[30],3.61 µM
same,TGI,[31],3.25 µM
same,TGI,[33],3.62 µM
same,TGI,[34],3.85 µM
same,TGI,[35],3.86 µM
same,TGI,[36],3.22 µM
same,TGI,[37],3.28 µM
same,TGI,[38],3.41 µM
same,TGI,[39],3 µM
same,TGI,[40],3.4 µM
same,TGI,[41],3.4 µM
same,TGI,[42],3.31 µM
same,TGI,[43],4.01 µM
same,TGI,[59],3.29 µM
same,TGI,[44],3.89 µM
same,TGI,[45],3.5 µM
same,TGI,[46],3.22 µM
same,TGI,[47],3.27 µM
same,TGI,[48],3.1 µM
same,TGI,[49],2.97 µM
same,TGI,[50],3.49 µM
same,TGI,[51],6.33 µM
same,TGI,[52],3.48 µM
same,TGI,[53],3.23 µM
same,TGI,[54],2.93 µM
same,TGI,[55],3.82 µM
same,TGI,[56],3.33 µM
same,TGI,[57],3.15 µM
same,TGI,[58],3.25 µM
